From paper PMC12415548 (RSC Advances, 2025)
≈ marks a conversion by molar mass, not a printed value. Read-outs that look alike come from different tables or passages of the source.

Tests used:
AChE = AChE (Homo sapiens, UniProt P22303); assay: Anticholinesterase inhibitory assay; format: biochemical
MCF-7 cells = assay: Apoptosis induction in MCF-7 cells; format: cell-based, human; conditions: MCF-7 cells (Fig. 4)
MDA-MB-231 cells = assay: Apoptosis induction in MDA-MB-231 cells; format: cell-based, human; conditions: MDA-MB-231 cells (Fig. 4)
[1] = tested on: MCF-7 breast cancer cell line; assay: MTT cytotoxicity assay, MCF-7; format: cell-based; conditions: Homo sapiens, MCF7, read-out: IC50 (μg mL^−1) ± SD MCF7
MRSA biofilm = assay: Antibiofilm activity, crystal violet assay; format: cell-based, Staphylococcus aureus
normal HDF cells = assay: Apoptosis/cytotoxicity in normal HDF cells
[2] = tested on: MDA-MB-231 breast cancer cell line; assay: MTT cytotoxicity assay, MDA-MB-231; format: cell-based; conditions: Homo sapiens, MDA-MB-231, read-out: IC50 (μg mL^−1) ± SD MDA-MB231
[3] = tested on: MRSA (Staphylococcus aureus ATCC 43300); assay: Minimum bactericidal concentration; format: cell-based; conditions: for Interpretation (of MBC/MIC): Table 4
[4] = tested on: MRSA (Staphylococcus aureus ATCC 43300); assay: Anti-MRSA MIC, broth microdilution; format: cell-based; conditions: for anti-MRSA potency compared to Linezolid: MIC comparison; for Interpretation (of MIC): MRSA, Table 3
MRSA = assay: Time-kill assay against MRSA; format: cell-based, Staphylococcus aureus; conditions: 0-24 h
[5] = tested on: MCF-7 breast cancer cell line; conditions: read-out: IC50 in MCF-7; known value quoted for comparison; no reference given; cited from earlier work

Sequence of AChE (P22303 32-614): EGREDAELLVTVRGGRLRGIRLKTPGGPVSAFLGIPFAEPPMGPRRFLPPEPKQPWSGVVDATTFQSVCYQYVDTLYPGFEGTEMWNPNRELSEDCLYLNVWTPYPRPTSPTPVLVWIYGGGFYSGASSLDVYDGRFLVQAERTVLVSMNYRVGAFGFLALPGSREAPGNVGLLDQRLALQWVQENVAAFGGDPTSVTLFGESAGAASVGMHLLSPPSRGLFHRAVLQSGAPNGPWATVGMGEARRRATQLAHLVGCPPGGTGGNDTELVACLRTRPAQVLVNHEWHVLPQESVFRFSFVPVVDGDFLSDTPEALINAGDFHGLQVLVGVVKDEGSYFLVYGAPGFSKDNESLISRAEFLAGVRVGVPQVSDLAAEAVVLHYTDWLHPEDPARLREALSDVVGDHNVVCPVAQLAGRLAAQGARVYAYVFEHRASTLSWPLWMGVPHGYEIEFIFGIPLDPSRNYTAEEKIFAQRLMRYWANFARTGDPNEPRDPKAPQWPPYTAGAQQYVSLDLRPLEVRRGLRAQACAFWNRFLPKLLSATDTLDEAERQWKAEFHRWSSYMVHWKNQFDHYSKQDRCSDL

SMILES | IC50 (AChE) [µM] | apoptosis induction (MCF-7 cells) | apoptosis induction (MDA-MB-231 cells) | IC50 [1] [µg/mL] | apoptosis / cytotoxicity in normal cells (normal HDF cells) | IC50 [2] [µg/mL] | MBC/MIC [3] | Interpretation (of MBC/MIC) [3] | anti-MRSA potency compared to Linezolid [4] | Interpretation (of MIC) [4] | other results
CN1C(=O)/C(=N\Nc2ncc(-c3cc4ccccc4oc3=O)s2)c2cc(Cl)ccc21 [Compound 5, (Z)-5-chloro-1-methyl-3-(2-(5-(2-oxo-2H-chromen-3-yl)thiazol-2-yl)hydrazono)indolin-2-one] | 0.0998 | moderate apoptosis | moderate apoptosis | 10.8 ± 1.19 (≈ 24.8 µM) | significantly lower cytotoxicity | 14.4 ± 1.89 (≈ 33.1 µM) | 5.7 | Moderate bactericidal | superior potency | Extremely potent | inhibition at 1.3 µg/mL (MRSA biofilm; Staphylococcus aureus, MRSA, read-out: inhibition of MRSA biofilm formation): ~40%; eradication of preformed MRSA biofilms (MRSA biofilm; various concentrations (Fig. 8Z)): eradication efficiency increasing in a concentration-dependent manner
CCc1ccc(N2C(=O)/C(=C3/C(=O)N(C)c4ccc(Cl)cc43)NC2=S)cc1 [Compound 9, (Z)-5-chloro-3-(1-(4-ethylphenyl)-5-oxo-2-thioxoimidazolidin-4-ylidene)-1-methylindolin-2-one] | 0.302 | – | – | 24 ± 1.49 (≈ 60.3 µM) | – | 28.4 ± 2.19 (≈ 71.4 µM) | – | – | significantly less potent | Weak activity | –
CN1C(=S)N(c2ccccc2)C(=O)/C1=C1/C(=O)N(C)c2ccc(Cl)cc21 [Compound 12, (Z)-5-chloro-1-methyl-3-(3-methyl-5-oxo-1-phenyl-2-thioxoimidazolidin-4-ylidene)indolin-2-one] | – | – | – | 16 ± 1.15 (≈ 41.7 µM) | – | 27.3 ± 2.01 (≈ 71.1 µM) | – | – | – | – | –
COc1cccc2c1C(=O)c1c(O)c3c(c(O)c1C2=O)C[C@@](O)(C(=O)CO)C[C@@H]3O[C@H]1C[C@H](N)[C@H](O)[C@H](C)O1 [Doxorubicin, reference compound] | – | – | – | 25.1 ± 1.67 (≈ 46.3 µM) | – | 36.6 ± 2.12 (≈ 67.3 µM) | – | – | – | – | –
CC(=O)NC[C@H]1CN(c2ccc(N3CCOCC3)c(F)c2)C(=O)O1 [Linezolid, reference compound] | – | – | – | – | – | – | 17.6 | Bacteriostatic | – | – | time-kill outcome (MRSA): remained bacteriostatic, showing no significant kill at any time point
CC1(C)CCC(c2ccc(Cl)cc2)=C(CN2CCN(c3ccc(C(=O)NS(=O)(=O)c4ccc(N[C@H](CCN5CCOCC5)CSc5ccccc5)c(S(=O)(=O)C(F)(F)F)c4)cc3)CC2)C1 [Navitoclax, reference compound] | – | high levels of apoptosis | high levels of apoptosis | – | high levels of apoptosis | – | – | – | – | – | IC50 [5]: 1 µM
